# In US11116218B2, “Isoxazole compound or a salt thereof” (OAT AGRIO CO., LTD., priority 2017, dated 2021):
# What was measured:
# [1] = test system: two-spotted spider mites; experiment: Miticidal test on two-spotted spider mite (leaf spray); type: in vivo; settings: Tetranychus urticae, in Phaseolus vulgaris, 48 h, read-out: Mortality of mites (%)
# Description: A piece of non-woven fabric (4.5×5.5 cm) was suspended inside a plastic cup through an incision made in the lid of the plastic cup. After water was poured into the cup, the cup was covered with the lid. A kidney bean leaf (about 3.5×4.5 cm) was then placed on the sufficiently soaked, non-woven fabric. Another kidney bean leaf with two-spotted spider mites (about 30 mite samples) was placed on top of the first leaf, and the fabric and leaves were placed in a thermostatic chamber having a temperature of 25±2° C. and a humidity of 40% overnight. Next morning the top leaf was removed as the mite population had already moved to the lower leaf.
# Miticidal formulations containing the compound of the invention (100 ppm and 5 ppm) were prepared by adding an aqueous solution (100 ppm) of Sorpol 355 (manufactured by Tobo Kagaku Co., Ltd.) to a methanol solution of the compound of the invention. These miticidal formulations were sprayed onto the leaves, and the leaves were air-dried and placed in a thermostatic chamber (25±2° C. and a humidity of 50%). The mortality rate of the two-spotted spider mites was calculated after 2 days.
# [2] = test system: two-spotted spider mites; experiment: Ovicidal test on two-spotted spider mites; type: in vivo, two-spotted spider mite; settings: Tetranychus urticae, 144 h; 10 ppm spray, ovicidal rate 6 days after spraying
# Description: A piece of non-woven fabric (4.5×5.5 cm) was suspended inside a plastic cup through an incision made in the lid of the plastic cup. After water was poured into the cup, the cup was covered with the lid. A kidney bean leaf (about 3.5×4.5 cm) was then placed on the sufficiently soaked, non-woven fabric. Twenty female adults of two-spotted spider mite were placed on the top of the leaf, and the fabric and leaf were placed in a thermostatic chamber having a temperature of 25±2° C. and a humidity of 40% and 16L8D. The next day, after the number of the female adults was adjusted once more to 20, 2 mL of a miticidal formulation containing the compound of the invention (10 ppm) prepared in the same manner as in test example 1 was sprayed onto the leaf, and the leaf was air-dried and placed in a thermostatic chamber (25±2° C. and a humidity of 50%). The ovicidal rate of the two-spotted spider mites was calculated 6 days after the spraying of the miticidal formulation.
Compound,mortality at 5 ppm [1] [%],mortality at 100 ppm [1] [%],inhibition at 10 ppm [2] [%]
"Cc1cc(F)c(-c2cc(C(F)(F)F)on2)cc1SCC(F)(F)F [Compound 1, 3-(2-fluoro-4-methyl-5-((2,2,2-trifluoroethyl)thio)phenyl)-5-(trifluoromethyl)isoxazole]",30,100,
"Cc1cc(F)c(-c2cc(C(F)(F)F)on2)cc1[S+]([O-])CC(F)(F)F (stereo not drawn) [Compound 2, 3-(2-fluoro-4-methyl-5-((2,2,2-trifluoroethyl)sulfinyl)phenyl)-5-(trifluoromethyl)isoxazole]",100,100,100
"Cc1cc(F)c(-c2cc(C(F)(F)C(F)(F)F)on2)cc1[S+]([O-])CC(F)(F)F (stereo not drawn) [Compound 5, 3-(2-fluoro-4-methyl-5-((2,2,2-trifluoroethyl)sulfinyl)phenyl)-5-(perfluoroethyl)isoxazole]",95,100,90
"Cc1cc(F)c(-c2cc(C(F)(F)C(F)(F)C(F)(F)F)on2)cc1[S+]([O-])CC(F)(F)F (stereo not drawn) [Compound 8, 3-(2-fluoro-4-methyl-5-((2,2,2-trifluoroethyl)sulfinyl)phenyl)-5-(heptafluoropropyl)isoxazole]",100,100,90
"Cc1cc(F)c(-c2cc(C(F)F)on2)cc1SCC(F)(F)F [Compound 13, 5-(difluoromethyl)-3-(2-fluoro-4-methyl-5-((2,2,2-trifluoroethyl)thio)phenyl)isoxazole]",48,100,98
"Cc1cc(F)c(-c2cc(C(F)F)on2)cc1[S+]([O-])CC(F)(F)F (stereo not drawn) [Compound 14, 5-(difluoromethyl)-3-(2-fluoro-4-methyl-5-((2,2,2-trifluoroethyl)sulfinyl)phenyl)isoxazole]",40,100,50
"Cc1cc(F)c(-c2cc(C(F)(F)Cl)on2)cc1[S+]([O-])CC(F)(F)F (stereo not drawn) [Compound 17, 5-(chlorodifluoromethyl)-3-(2-fluoro-4-methyl-5-((2,2,2-trifluoroethyl)sulfinyl)phenyl)isoxazole]",98,100,100
"Cc1cc(F)c(-c2cc(C(F)(F)c3ccccc3)on2)cc1SCC(F)(F)F [Compound 19, 5-(difluoro(phenyl)methyl)-3-(2-fluoro-4-methyl-5-((2,2,2-trifluoroethyl)thio)phenyl)isoxazole]",100,100,100
"Cc1cc(F)c(-c2cc(C(F)(F)c3ccccc3)on2)cc1[S+]([O-])CC(F)(F)F (stereo not drawn) [Compound 20, 5-(difluoro(phenyl)methyl)-3-(2-fluoro-4-methyl-5-((2,2,2-trifluoroethyl)sulfinyl)phenyl)isoxazole]",93,100,95
"Cc1cc(Cl)c(-c2cc(C(F)(F)F)on2)cc1SCC(F)(F)F [Compound 22, 3-(2-chloro-4-methyl-5-((2,2,2-trifluoroethyl)thio)phenyl)-5-(trifluoromethyl)isoxazole]",73,100,
"Cc1cc(Cl)c(-c2cc(C(F)(F)F)on2)cc1[S+]([O-])CC(F)(F)F (stereo not drawn) [Compound 23, 3-(2-chloro-4-methyl-5-((2,2,2-trifluoroethyl)sulfinyl)phenyl)-5-(trifluoromethyl)isoxazole]",100,100,100
"Cc1cc(C)c(-c2cc(C(F)(F)F)on2)cc1SCC(F)(F)F [Compound 25, 3-(2,4-dimethyl-5-((2,2,2-trifluoroethyl)thio)phenyl)-5-(trifluoromethyl)isoxazole]",10,100,
"Cc1cc(C)c([S+]([O-])CC(F)(F)F)cc1-c1cc(C(F)(F)F)on1 (stereo not drawn) [Compound 26, 3-(2,4-dimethyl-5-((2,2,2-trifluoroethyl)sulfinyl)phenyl)-5-(trifluoromethyl)isoxazole]",98,100,90
"CCC[S+]([O-])c1cc(-c2cc(C(F)(F)F)on2)c(F)cc1C (stereo not drawn) [Compound 35, 3-(2-fluoro-4-methyl-5-(propylsulfinyl)phenyl)-5-(trifluoromethyl)isoxazole]",100,100,100
"Cc1cc(F)c(-c2noc(C(F)(F)F)c2C)cc1[S+]([O-])CC(F)(F)F (stereo not drawn) [Compound 38, 3-(2-fluoro-4-methyl-5-((2,2,2-trifluoroethyl)sulfinyl)phenyl)-4-methyl-5-(trifluoromethyl)isoxazole]",100,100,100
"Cc1cc(C)c(-c2cc(C(F)(F)c3ccccc3)on2)cc1SCC(F)(F)F [Compound 40, 5-(difluoro(phenyl)methyl)-3-(2,4-dimethyl-5-((2,2,2-trifluoroethyl)thio)phenyl)isoxazole]",33,100,89
"Cc1cc(Cl)c(-c2cc(C(F)(F)Cl)on2)cc1SCC(F)(F)F [Compound 43, 3-(2-chloro-4-methyl-5-((2,2,2-trifluoroethyl)thio)phenyl)-5-(chlorodifluoromethyl)isoxazole]",100,100,100
"Cc1cc(Cl)c(-c2cc(C(F)(F)Cl)on2)cc1[S+]([O-])CC(F)(F)F (stereo not drawn) [Compound 44, 3-(2-chloro-4-methyl-5-((2,2,2-trifluoroethyl)sulfinyl)phenyl)-5-(chlorodifluoromethyl)isoxazole]",100,100,100
"Cc1cc(C)c(-c2cc(C(F)F)on2)cc1SCC(F)(F)F [Compound 46, 5-(difluoromethyl)-3-(2,4-dimethyl-5-((2,2,2-trifluoroethyl)thio)phenyl)isoxazole]",79,100,83
"Cc1cc(C)c([S+]([O-])CC(F)(F)F)cc1-c1cc(C(F)F)on1 (stereo not drawn) [Compound 47, 5-(difluoromethyl)-3-(2,4-dimethyl-5-((2,2,2-trifluoroethyl)sulfinyl)phenyl)isoxazole]",51,100,80
"Cc1cc(C)c(-c2cc(C(F)(F)Cl)on2)cc1SCC(F)(F)F [Compound 49, 5-(chlorodifluoromethyl)-3-(2,4-dimethyl-5-((2,2,2-trifluoroethyl)thio)phenyl)isoxazole]",6,100,0
"Cc1cc(C)c([S+]([O-])CC(F)(F)F)cc1-c1cc(C(F)(F)Cl)on1 (stereo not drawn) [Compound 50, 5-(chlorodifluoromethyl)-3-(2,4-dimethyl-5-((2,2,2-trifluoroethyl)sulfinyl)phenyl)isoxazole]",96,100,97
"Cc1cc(Cl)c(-c2cc(C(F)(F)c3ccccc3)on2)cc1SCC(F)(F)F [Compound 52, 3-(2-chloro-4-methyl-5-((2,2,2-trifluoroethyl)thio)phenyl)-5-(difluoro(phenyl)methyl)isoxazole]",61,100,32
"Cc1cc(Cl)c(-c2cc(C(F)(F)c3ccccc3)on2)cc1[S+]([O-])CC(F)(F)F (stereo not drawn) [Compound 53, 3-(2-chloro-4-methyl-5-((2,2,2-trifluoroethyl)sulfinyl)phenyl)-5-(difluoro(phenyl)methyl)isoxazole]",64,100,90
"Cc1cc(Cl)c(-c2cc(C(F)F)on2)cc1SCC(F)(F)F [Compound 55, 3-(2-chloro-4-methyl-5-((2,2,2-trifluoroethyl)thio)phenyl)-5-(difluoromethyl)isoxazole]",100,100,100
"Cc1cc(Cl)c(-c2cc(C(F)F)on2)cc1[S+]([O-])CC(F)(F)F (stereo not drawn) [Compound 56, 3-(2-chloro-4-methyl-5-((2,2,2-trifluoroethyl)sulfinyl)phenyl)-5-(difluoromethyl)isoxazole]",100,100,100
"Cc1ccc(-c2cc(C(F)(F)F)on2)cc1SCC(F)(F)F [Compound A, reference compound]",0,100,0
